# Reference: PubChem BioAssay (NCI)
#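 Assay format: 96-well plates, 48-hour exposure. GI50 = concentration required for 50% inhibition of growth. TGI is the concentration that stops growth completely.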
# Key:
# Assay in all cases: NCI anticancer screen, dose series, 48 h
# [1] = test system: M14 melanoma
# [2] = test system: UACC-257 melanoma
# [3] = test system: HCT-15 colon
# [4] = test system: SW-620 colon
# [5] = test system: UO-31 renal
# [6] = test system: MOLT-4 leukemia
# [7] = test system: CCRF-CEM leukemia
# [8] = test system: MALME-3M melanoma
# [9] = test system: K-562 leukemia
# [10] = test system: PC-3 prostate
smiles,measurement,setting,value
COc1ccc(C=O)c(NC(=O)C(C)C)c1,TGI,[1],> 100 µM
same,TGI,[2],> 100 µM
same,TGI,[3],> 100 µM
same,TGI,[4],> 10 µM
same,TGI,[5],82.6 µM
same,TGI,[6],74.7 µM
same,TGI,[7],> 10 µM
same,TGI,[8],94.4 µM
same,TGI,[9],> 100 µM
CC1(C)CCC[C@]2(C)[C@@H](C=O)C(C=O)=CC[C@@H]12,TGI,[10],> 100 µM
same,TGI,[1],33.7 µM
same,TGI,[2],31.5 µM
same,TGI,[3],30.7 µM
same,TGI,[4],> 100 µM
same,TGI,[5],29.9 µM
same,TGI,[6],30.5 µM
same,TGI,[7],80.1 µM
same,TGI,[8],32 µM
O=C(NC1CCCC1=O)c1ccccc1 (configuration not stated),TGI,[1],> 100 µM
same,TGI,[2],> 100 µM
same,TGI,[4],> 100 µM
same,TGI,[5],> 100 µM
same,TGI,[6],> 100 µM
same,TGI,[7],> 100 µM
same,TGI,[8],> 100 µM
same,TGI,[9],> 100 µM
CC1(C)OCC(C(O)C2OC(C)(C)OC2/C=N\O)O1 (configuration not stated),TGI,[2],> 100 µM
same,TGI,[4],> 100 µM
same,TGI,[5],> 100 µM
same,TGI,[6],> 100 µM
same,TGI,[7],> 100 µM
same,TGI,[8],> 100 µM
same,TGI,[9],> 100 µM
CC(C)c1c2[nH]c3ccccc3c2c(C(C)C)c2[nH]c3ccccc3c12,TGI,[1],> 100 µM
same,TGI,[2],> 100 µM
same,TGI,[3],> 100 µM
same,TGI,[4],> 100 µM
same,TGI,[5],> 100 µM
same,TGI,[6],> 100 µM
same,TGI,[7],> 100 µM
same,TGI,[8],> 100 µM
same,TGI,[9],> 100 µM
CCCCCCCCCCCCCP(=O)(O)NCC(N)=O,TGI,[1],> 100 µM
same,TGI,[2],> 100 µM
same,TGI,[3],> 100 µM
same,TGI,[4],> 100 µM
same,TGI,[5],90.4 µM
same,TGI,[7],> 100 µM
same,TGI,[8],> 100 µM
O=c1[nH]cnc2c(C3NC(CO)C(O)C3O)c[nH]c12 (configuration not stated),GI50,[10],> 100 µM
same,TGI,[10],> 100 µM
same,GI50,[1],> 100 µM
same,TGI,[1],> 100 µM
same,GI50,[2],> 100 µM
same,TGI,[2],> 100 µM
same,GI50,[3],> 100 µM
same,TGI,[3],> 100 µM
same,GI50,[4],> 100 µM
same,TGI,[4],> 100 µM
same,GI50,[5],> 100 µM
same,TGI,[5],> 100 µM
same,GI50,[8],> 100 µM
same,TGI,[8],> 100 µM
CC1CN1c1c(C(=O)/C=C/c2ccccc2)c(-c2ccccc2)nn(C)c1=O (configuration not stated),TGI,[1],32.8 µM
same,TGI,[2],36.4 µM
same,TGI,[3],27.4 µM
same,TGI,[4],39.8 µM
same,TGI,[5],29.1 µM
same,TGI,[6],52.7 µM
same,TGI,[7],37.9 µM
same,TGI,[8],34.9 µM
same,TGI,[9],50.4 µM
Fc1cccc(C2SCc3nc4ccccc4n32)c1F (configuration not stated),TGI,[1],> 100 µM
same,TGI,[2],> 100 µM
same,TGI,[3],> 100 µM
same,TGI,[4],> 100 µM
same,TGI,[5],> 100 µM
same,TGI,[6],68.5 µM
same,TGI,[7],> 100 µM
same,TGI,[8],> 100 µM
same,TGI,[9],> 100 µM
O=C([CH-]C(=O)c1ccccc1)c1ccccc1.O=C([CH-]C(=O)c1ccccc1)c1ccccc1.[OH-].[OH-].[Ti+4],GI50,[1],36.2 µM
same,TGI,[1],> 100 µM
same,GI50,[2],> 100 µM
same,TGI,[2],> 100 µM
same,GI50,[3],> 100 µM
same,TGI,[3],> 100 µM
same,GI50,[4],49 µM
same,TGI,[4],> 100 µM
same,GI50,[5],59.3 µM
same,TGI,[5],> 100 µM
same,GI50,[6],54.7 µM
same,TGI,[6],> 100 µM
same,GI50,[8],> 100 µM
same,TGI,[8],> 100 µM
same,GI50,[9],63.3 µM
same,TGI,[9],> 100 µM
